Test results published in PMC9858427, “Design, synthesis and biological evaluation of 2-((4-sulfamoylphenyl)amino)-pyrrolo[2,3-d]pyrimidine derivatives as CDK inhibitors” (Journal of Enzyme Inhibition and Medicinal Chemistry, 2023).
Where two headings read alike, the source gives them in different places.

Experiments:
MIA PaCa-2 cells = test: MTT proliferation assay in MIA PaCa-2 cells; assay type: cell-based, human; settings: 72 h drug exposure
Experimental: (§1) The human pancreatic carcinoma MIA PaCa-2 was purchased from China Centre for Type Culture Collection, AsPC-1 and BxPC-3 cell Lines were purchased from Cell Centre of the Institute of Basic Medical Sciences, Chinese Academy of Medical Sciences and Peking Union Medical College. PANC-1 was kindly provided by Nankai Hospital (Tianjin, China). These cancer cell lines were cultured according to the manufacturer’s instruction.
(§2) Then 3-fold diluted concentrations of tested compound were added respectively which was dissolved by DMSO in the ratio of 1:1000. After indicated incubation period, MTT was added to each well and incubated for 4 h at 37 °C. Then, the supernatant was discarded gently, and the precipitate was dissolved in 100 µL of DMSO in each well. The absorbance (A) at 570 nm was detected with a microplate reader (Multiskan MK3; Thermo Fisher Scientific, MA, USA). Vehicle-treated cells were served as the control for the calculation of relative cell viability (%) of treated group at single concentration. IC50 value was calculated directly from the inhibition curve of serial dilution of test compound and was expressed as mean ± SD using the SPSS statistical software (SPSS17.0 Inc., Chicago, IL, USA).

CDK9/cyclinT1 = CDK9/cyclinT1 (Homo sapiens, UniProt P50750); test: CDK9/cyclinT1 Lance Ultra Assay, single concentration screen; assay type: biochemical; settings: ATP concentration at Km; for inhibition at 0.05 µM: 50 nM, read-out: CDK9 inhibitory rate (%) @ 50nM; for CDK9 inhibitory rate (%) @ 50nM: 0.05 µM
Chain of CDK9/cyclinT1 (P50750 whole entry): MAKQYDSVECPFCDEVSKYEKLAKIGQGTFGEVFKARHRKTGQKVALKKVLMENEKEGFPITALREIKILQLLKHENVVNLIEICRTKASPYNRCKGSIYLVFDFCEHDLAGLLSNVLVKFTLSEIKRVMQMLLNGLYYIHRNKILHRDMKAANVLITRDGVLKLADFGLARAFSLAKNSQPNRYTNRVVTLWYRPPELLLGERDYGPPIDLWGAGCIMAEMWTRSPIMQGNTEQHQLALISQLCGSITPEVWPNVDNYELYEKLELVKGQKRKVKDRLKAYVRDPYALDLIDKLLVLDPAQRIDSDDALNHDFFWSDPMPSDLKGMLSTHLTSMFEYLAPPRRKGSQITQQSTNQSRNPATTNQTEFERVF
Chain of CDK9/cyclinT1 (O60563 whole entry partner): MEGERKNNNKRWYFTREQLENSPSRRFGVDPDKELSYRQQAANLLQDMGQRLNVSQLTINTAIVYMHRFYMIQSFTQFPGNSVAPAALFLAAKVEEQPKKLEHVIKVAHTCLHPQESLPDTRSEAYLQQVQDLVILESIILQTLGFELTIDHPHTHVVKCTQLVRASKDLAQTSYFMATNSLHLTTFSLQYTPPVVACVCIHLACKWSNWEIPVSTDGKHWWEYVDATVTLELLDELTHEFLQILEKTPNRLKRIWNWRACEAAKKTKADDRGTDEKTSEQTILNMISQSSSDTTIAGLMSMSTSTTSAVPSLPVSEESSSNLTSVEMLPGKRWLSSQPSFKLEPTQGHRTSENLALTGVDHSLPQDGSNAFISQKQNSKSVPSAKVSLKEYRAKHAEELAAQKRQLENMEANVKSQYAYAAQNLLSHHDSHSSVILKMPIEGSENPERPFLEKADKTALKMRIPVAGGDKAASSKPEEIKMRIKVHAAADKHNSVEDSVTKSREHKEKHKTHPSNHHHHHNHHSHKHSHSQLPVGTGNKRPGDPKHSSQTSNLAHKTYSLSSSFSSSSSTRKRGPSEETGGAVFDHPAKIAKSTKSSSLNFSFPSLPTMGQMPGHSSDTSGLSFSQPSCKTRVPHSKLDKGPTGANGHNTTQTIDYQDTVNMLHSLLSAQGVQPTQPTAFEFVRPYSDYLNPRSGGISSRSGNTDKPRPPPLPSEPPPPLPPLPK
Experimental: (§3) CDK kinase activity (IC50 values and inhibitory rate at single concentration) was measured using the kinase profiling services (Shanghai ChemPartner Co., Ltd). Compounds were sent to ChemPartner as a solution in DMSO at concentration of 10 mM.

[1] = Solubility / precipitation observations; assay type: physicochemical
CDK2 = CDK2 (Homo sapiens, UniProt P24941); test: CDK2 kinase IC50, Mobility shift assay; assay type: biochemical
Experimental: as §3

CDK7 = CDK7 (Homo sapiens, UniProt P50613); test: CDK7 kinase IC50, Mobility shift assay; assay type: biochemical
Chain of CDK7 (P50613 whole entry): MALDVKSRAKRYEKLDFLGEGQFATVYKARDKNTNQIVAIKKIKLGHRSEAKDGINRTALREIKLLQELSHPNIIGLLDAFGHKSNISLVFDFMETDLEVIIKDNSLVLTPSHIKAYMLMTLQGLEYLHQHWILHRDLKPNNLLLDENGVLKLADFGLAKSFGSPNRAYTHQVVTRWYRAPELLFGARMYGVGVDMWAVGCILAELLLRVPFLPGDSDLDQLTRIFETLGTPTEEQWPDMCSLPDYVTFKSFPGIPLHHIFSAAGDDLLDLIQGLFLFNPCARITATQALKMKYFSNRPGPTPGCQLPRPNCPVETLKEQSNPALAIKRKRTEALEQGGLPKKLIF
Chain of CDK7 (P51946 whole entry partner): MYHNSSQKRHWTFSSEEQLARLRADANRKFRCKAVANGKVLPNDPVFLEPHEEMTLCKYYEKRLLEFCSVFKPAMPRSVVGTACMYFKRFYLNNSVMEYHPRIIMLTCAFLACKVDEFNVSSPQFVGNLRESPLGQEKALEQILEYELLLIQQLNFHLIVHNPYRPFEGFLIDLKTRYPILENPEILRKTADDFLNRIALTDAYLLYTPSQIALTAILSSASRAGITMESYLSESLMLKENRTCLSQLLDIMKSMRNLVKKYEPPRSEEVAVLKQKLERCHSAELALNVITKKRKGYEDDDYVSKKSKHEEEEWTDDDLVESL
Chain of CDK7 (P51948 whole entry partner): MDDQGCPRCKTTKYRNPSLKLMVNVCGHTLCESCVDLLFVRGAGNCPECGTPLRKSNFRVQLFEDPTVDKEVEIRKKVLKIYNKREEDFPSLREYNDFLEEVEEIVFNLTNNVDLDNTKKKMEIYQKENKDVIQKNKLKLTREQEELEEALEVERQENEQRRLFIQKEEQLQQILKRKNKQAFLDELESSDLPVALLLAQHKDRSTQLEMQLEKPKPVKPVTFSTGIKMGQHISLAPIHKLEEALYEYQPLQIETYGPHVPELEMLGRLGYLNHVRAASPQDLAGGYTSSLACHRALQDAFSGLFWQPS
Experimental: as §3

CDK4 = CDK4 (Homo sapiens, UniProt P11802); test: CDK4 kinase IC50, Mobility shift assay; assay type: biochemical
Chain of CDK4 (P11802 whole entry): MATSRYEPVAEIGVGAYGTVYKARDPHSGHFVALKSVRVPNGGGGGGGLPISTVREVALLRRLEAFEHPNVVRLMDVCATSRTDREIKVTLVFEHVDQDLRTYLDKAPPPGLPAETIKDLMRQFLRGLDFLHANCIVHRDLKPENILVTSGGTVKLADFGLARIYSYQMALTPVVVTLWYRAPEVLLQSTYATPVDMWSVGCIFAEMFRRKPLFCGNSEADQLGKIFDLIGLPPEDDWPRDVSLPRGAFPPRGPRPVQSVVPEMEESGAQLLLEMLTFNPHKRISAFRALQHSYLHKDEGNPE
Chain of CDK4 (P30281 whole entry partner): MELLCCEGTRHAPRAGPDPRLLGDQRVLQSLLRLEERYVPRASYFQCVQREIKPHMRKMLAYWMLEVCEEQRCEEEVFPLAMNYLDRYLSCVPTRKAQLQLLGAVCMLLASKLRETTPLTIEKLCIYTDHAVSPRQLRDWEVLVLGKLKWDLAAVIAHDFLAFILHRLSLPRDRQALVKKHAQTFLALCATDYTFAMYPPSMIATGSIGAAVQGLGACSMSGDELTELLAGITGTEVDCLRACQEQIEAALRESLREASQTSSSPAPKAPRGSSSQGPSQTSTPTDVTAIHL
Experimental: as §3

CDK9 = CDK9 (Homo sapiens, UniProt P50750); test: CDK9 kinase IC50, Mobility shift assay; assay type: biochemical
Chain of CDK9 (P50750 whole entry): as the sequence (P50750 whole entry) above
Chain of CDK9 (O60563 whole entry partner): as the sequence (O60563 whole entry partner) above
Experimental: as §3

CDK1 = CDK1 (Homo sapiens, UniProt P06493); test: CDK1 kinase IC50, Mobility shift assay; assay type: biochemical
Chain of CDK1 (P06493 whole entry): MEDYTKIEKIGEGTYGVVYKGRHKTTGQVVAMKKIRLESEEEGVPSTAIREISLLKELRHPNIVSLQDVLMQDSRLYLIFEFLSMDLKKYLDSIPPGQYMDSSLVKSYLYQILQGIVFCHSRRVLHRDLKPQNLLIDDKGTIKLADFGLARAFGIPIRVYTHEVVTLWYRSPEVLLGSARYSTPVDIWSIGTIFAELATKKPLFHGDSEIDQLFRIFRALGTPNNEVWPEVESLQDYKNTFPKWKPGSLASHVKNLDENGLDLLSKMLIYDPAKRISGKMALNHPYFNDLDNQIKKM
Chain of CDK1 (P14635 whole entry partner): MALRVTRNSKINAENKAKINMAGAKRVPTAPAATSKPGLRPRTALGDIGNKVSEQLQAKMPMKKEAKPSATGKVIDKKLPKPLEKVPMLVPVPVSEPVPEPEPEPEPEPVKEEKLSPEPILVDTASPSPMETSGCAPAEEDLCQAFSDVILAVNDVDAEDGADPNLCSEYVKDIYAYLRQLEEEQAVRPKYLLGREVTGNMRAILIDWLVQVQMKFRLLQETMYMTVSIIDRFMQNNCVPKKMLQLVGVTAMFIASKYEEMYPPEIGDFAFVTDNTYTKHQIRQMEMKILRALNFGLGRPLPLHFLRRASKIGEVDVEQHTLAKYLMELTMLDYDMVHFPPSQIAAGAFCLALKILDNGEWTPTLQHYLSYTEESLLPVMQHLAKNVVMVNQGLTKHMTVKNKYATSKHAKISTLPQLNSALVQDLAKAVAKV
Experimental: as §3

AsPC-1 = test: MTT proliferation assay in AsPC-1 cells; assay type: cell-based; settings: Homo sapiens, ASPC1; 72 h drug exposure
Experimental: as §1
as §2, with “Cells were planted in 96-well plates at a density of 3000–4000 cells per well and incubated at 37 °C in a humidified CO2 incubator for 24 h. Then 3-fold” for “Then 3-fold”

Oral PK study in rats = assay type: in vivo; settings: male, SD, rat, plasma, 30 mg/kg
Experimental: Synthetic compound was administered as a suspension or solution in the saline with 5% DMSO and 5% Solutol. GCTB was dissolved in saline. All of the experiments were approved by the Institutional Animal Care and Use Committee of Institute of Medicinal Biotechnology. All experiments were carried out under ethics committee–approved protocols and in compliance with the guidelines for the care of laboratory animals of Institute of Medicinal Biotechnology, CAMS.
SD rats were purchased from Beijing Vital River Laboratory Animal Technology Co., Ltd and randomly divided into three groups (n = 3, male). The animals were housed under standard conditions and fastened for 12 h before the treatment. They had free access to water and consumed a standard laboratory diet from 4 h after administration. Blood was taken from the orbital venous plexus at 0, 0.083, 0.25, 0.5, 1, 2, 4, 6, 8, and 24 h after intragastric administration of the test compound (30 mg/kg). The blood samples were collected into heparin anticoagulated EP tubes and centrifuged at 8000 r/min for 5 min at 2−8 °C; the plasma was separated and stored at −70 °C for use. Plasma was centrifuged at 4000 rpm for 10 min at 2−8 °C and stored at −70 °C until analysis. Plasma samples were analysed by LC-MS/MS (AB Sciex API4000 QTRAP) equipped with an ESI ion resource and Analyst 1.5.1 software. The noncompartmental model analysis was used for calculating pharmacokinetic parameters with the WinNolin professional v6.3 program (Pharsight, USA).

BxPC-3 = test: MTT proliferation assay in BxPC-3 cells; assay type: cell-based; settings: Homo sapiens, 72 h drug exposure
Experimental: as §1
as §2, with “Cells were planted in 96-well plates at a density of 3000–4000 cells per well and incubated at 37 °C in a humidified CO2 incubator for 24 h. Then 3-fold” for “Then 3-fold”

PANC-1 = test: MTT proliferation assay in PANC-1 cells; assay type: cell-based; settings: Homo sapiens, 72 h drug exposure
Experimental: as §1
as §2, with “Cells were planted in 96-well plates at a density of 3000–4000 cells per well and incubated at 37 °C in a humidified CO2 incubator for 24 h. Then 3-fold” for “Then 3-fold”

Row | IC50 (MIA PaCa-2 cells; Homo sapiens, MIA PaCa-2, 72 h) | inhibition at 0.05 µM (CDK9/cyclinT1) | IC50 (CDK2) | IC50 (CDK7) | IC50 (CDK4) | IC50 (CDK9) | Compound | further results
1 | 7.8 ± 1.04 µM | 99.1% | 227 nM | > 10000 nM | 35 nM | 6.3 nM | CN1CCN(S(=O)(=O)c2ccc(Nc3ncc4cc(C(=O)N(C)C)n(C5CCCC5)c4n3)cc2)CC1 [5c, 7-Cyclopentyl-N,N-dimethyl-2-((4-((4-methylpiperazin-1-yl)sulphonyl)phenyl)amino)-7H-pyrrolo[2,3-d]pyrimidine-6-carboxamide] | IC50 (CDK1): 550 nM
2 | 2.85 ± 0.52 µM | 80.6% | 2340 nM | > 10000 nM | 170 nM | 20 nM | CC1CCN(S(=O)(=O)c2ccc(Nc3ncc4cc(C(=O)N(C)C)n(C5CCCC5)c4n3)cc2)CC1 [5d, 7-Cyclopentyl-N,N-dimethyl-2-((4-((4-methylpiperidin-1-yl)sulphonyl)phenyl)amino)-7H-pyrrolo[2,3-d]pyrimidine-6-carboxamide] | IC50 (CDK1): 906 nM
3 | 4.35 ± 1.61 µM | 81.8% | 236 nM | > 10000 nM | 52 nM | 13 nM | CN(C)C(=O)c1cc2cnc(Nc3ccc(S(=O)(=O)N4CCOCC4)cc3)nc2n1C1CCCC1 [5e, 7-Cyclopentyl-N,N-dimethyl-2-((4-(morpholinosulfonyl)phenyl)amino)-7H-pyrrolo[2,3-d]pyrimidine-6-carboxamide] | IC50 (CDK1): 439 nM
4 | 40.8 ± 3.26 µM | -3.1% |  |  |  |  | COc1ccccc1NC(=O)c1cc2cnc(Nc3ccc(S(=O)(=O)Nc4nc(C)cc(C)n4)cc3)nc2n1C1CCCC1 [10a, 7-Cyclopentyl-2-((4-(N-(4,6-dimethylpyrimidin-2-yl)sulfamoyl)phenyl)amino)-N-(2-methoxyphenyl)-7H-pyrrolo[2,3-d]pyrimidine-6-carboxamide] | 
5 | 80.8 ± 16 µM | 54% |  |  |  |  | COc1ccccc1NC(=O)c1cc2cnc(Nc3ccc(S(=O)(=O)Nc4ncccn4)cc3)nc2n1C1CCCC1 [10b, 7-Cyclopentyl-N-(2-methoxyphenyl)-2-((4-(N-(pyrimidin-2-yl)sulfamoyl)phenyl)amino)-7H-pyrrolo[2,3-d]pyrimidine-6-carboxamide] | CDK9 inhibitory rate (%) @ 50nM (CDK9/cyclinT1): 54.4%
6 | 0.94 ± 0.25 µM | 98.2% | 147 nM | 4970 nM | 20 nM | 3.2 nM | CN(C)C(=O)c1cc2cnc(Nc3ccc(S(=O)(=O)N4CCNCC4)cc3)nc2n1C1CCCC1.O=C(O)C(F)(F)F [compound 5b, 7-Cyclopentyl-N,N-dimethyl-2-((4-(piperazin-1-ylsulfonyl)phenyl)amino)-7H-pyrrolo[2,3-d]pyrimidine-6-carboxamide trifluoroacetate] | IC50 (AsPC-1): 1.48 ± 0.09 µM; Cmax (Oral PK study in rats; single oral administration, read-out: maximum plasma drug concentration (Cmax)): 1080 ng/mL; AUC (Oral PK study in rats; single oral administration, read-out: systematic exposure (AUC0‑t)): 4430 ng·h/mL; AUC(0-inf) (Oral PK study in rats; oral, n = 3): 4780 ± 2160 ng·h/mL; AUC(0-t) (Oral PK study in rats; oral, n = 3): 4430 ± 1620 ng·h/mL; MRT (Oral PK study in rats; oral, n = 3): 3.62 ± 0.83 h; Tmax (Oral PK study in rats; oral, n = 3): 1.17 h; half-life (Oral PK study in rats; oral, n = 3): 2.2 ± 0.9 h; Cmax (Oral PK study in rats; oral, n = 3, read-out: Cmax): 2000 nM; IC50 (CDK1): 333 nM; IC50 (BxPC-3): 0.249 ± 0.099 µM; IC50 (PANC-1): 5.81 ± 1.38 µM

The remaining lines, values behind:

Row | Compound | IC50 (MIA PaCa-2 cells; Homo sapiens, MIA PaCa-2, 72 h) | inhibition at 0.05 µM (CDK9/cyclinT1) | IC50 (CDK2) | IC50 (CDK7) | IC50 (CDK4) | IC50 (CDK9) | further results
7 | Cc1ccnc(NS(=O)(=O)c2ccc(Nc3ncc4cc(C(=O)N(C)C)n(C5CCCC5)c4n3)cc2)n1 [2a, 7-cyclopentyl-N,N-dimethyl-2-((4-(N-(4-methylpyrimidin-2-yl)sulfamoyl)phenyl)amino)-7H-pyrrolo[2,3-d]pyrimidine-6-carboxamide] | > 10 µM | 100% |  |  |  |  | IC50 (MIA PaCa-2 cells): 13 ± 0.37 µM
8 | CN(C)C(=O)c1cc2cnc(Nc3ccc(S(=O)(=O)Nc4ccccn4)cc3)nc2n1C1CCCC1 [2c] | 18.8 ± 5.54 µM | 99.1% |  |  |  |  | solubility (in words) [1]: poor solubility
9 | CN(C)C(=O)c1cc2cnc(Nc3ccc(S(=O)(=O)Nc4ccc(Cl)cc4)cc3)nc2n1C1CCCC1 [2d, 2-((4-(N-(4-chlorophenyl)sulfamoyl)phenyl)amino)-7-cyclopentyl-N,N-dimethyl-7H-pyrrolo[2,3-d]pyrimidine-6-carboxamide] | 6.23 ± 1.25 µM | 91.8% | 7980 nM | > 10000 nM | 148 nM | 7.7 nM | 
10 | CN(C)C(=O)c1cc2cnc(Nc3ccc(S(=O)(=O)N(C)C)cc3)nc2n1C1CCCC1 [2e, 7-Cyclopentyl-2-((4-(N,N-dimethylsulfamoyl)phenyl)amino)-N,N-dimethyl-7H-pyrrolo[2,3-d]pyrimidine-6-carboxamide] | 10.5 ± 0.74 µM | 89.3% |  |  |  |  | 
11 | CN(C)C(=O)c1cc2cnc(Nc3ccc(S(C)(=O)=O)cc3)nc2n1C1CCCC1 [2f, 7-Cyclopentyl-N,N-dimethyl-2-((4-(methylsulfonyl)phenyl)amino)-7H-pyrrolo[2,3-d]pyrimidine-6-carboxamide] | 18.9 ± 2.12 µM | 96.5% |  |  |  |  | 
12 | CN(C)C(=O)c1cc2cnc(Nc3ccc(S(=O)(=O)N(C)C)cn3)nc2n1C1CCCC1 [2j] | 69.1 ± 15.5 µM | 25% |  |  |  |  | CDK9 inhibitory rate (%) @ 50nM (CDK9/cyclinT1): 25.8%
13 | CN(C)C(=O)c1cc2cnc(Nc3ccc(N4CCNCC4)cn3)nc2n1C1CCCC1 [Ribociclib, reference compound] | 16.5 ± 7 µM | 16.9% |  |  |  |  | 
14 | CN(C)C(=O)c1cc2cnc(Nc3ccc(S(=O)(=O)Nc4ncccn4)cc3)nc2n1C1CCCC1 [compound 2b, 7-Cyclopentyl-N,N-dimethyl-2-((4-(N-(pyrimidin-2-yl)sulfamoyl)phenyl)amino)-7H-pyrrolo[2,3-d]pyrimidine-6-carboxamide] | > 10 µM | 98.7% |  |  |  |  | IC50 (MIA PaCa-2 cells): 14.3 ± 0.21 µM; solubility (in words) [1]: poor solubility
15 | CN(C)C(=O)c1cc2cnc(Nc3ccccc3)nc2n1C1CCCC1 [compound 2h] | 45.1 ± 16.6 µM | 93.2% |  |  |  |  | 
16 | CN(C)C(=O)c1cc2cnc(Nc3ccc(S(N)(=O)=O)cn3)nc2n1C1CCCC1 [compound 2i, 7-Cyclopentyl-N,N-dimethyl-2-((5-sulfamoylpyridin-2-yl)amino)-7H-pyrrolo[2,3-d]pyrimidine-6-carboxamide] | > 100 µM | 27% |  |  |  |  | CDK9 inhibitory rate (%) @ 50nM (CDK9/cyclinT1): 27.4%
